Tested on: human patients having XLMTM
Assay: Ursodiol treatment of hyperbilirubinemia after resamirigene bilparvovec
Assay type: in vivo
Procedure: A subject (115-9001) experienced an SAE of Grade 3 cholestasis which required hospitalization. The subject's medical history included cholestasis and elevated total bilirubin. Approximately 5 weeks after dosing, the subject had elevated direct bilirubin levels (Grade 2) which was treated with ursodiol and resolved 6 weeks later. Approximately 11 weeks after dosing, the subject experienced cholestasis and decision was made to hospitalize the subject 9 days after cholestasis was reported. The cholestasis resolved after approximately 12 weeks. Cholestasis was considered by the Investigator to be possibly related to resamirigene bilparvovec infusion. The subject's baseline history of cholestasis supports underlying disease as causal factor.
Cholestasis and hyperbilirubinemia are considered identified risks associated with resamirigene bilparvovec. Therefore, for subjects receiving resamirigene bilparvovec, ursodiol is recommended as prophylaxis for possible cholestatic syndromes. Ursodiol (ursodeoxycholic acid) is an enterally administered hydrophilic bile acid that can decrease the hydrophobic bile acid content within bile. […]

## C[C@H](CCC(=O)O)[C@H]1CC[C@H]2[C@@H]3[C@@H](O)C[C@@H]4C[C@H](O)CC[C@]4(C)[C@H]3CC[C@]12C [ursodiol, Ursodeoxycholic acid]
In some cases
  Transient hyperbilirubinemia following resamirigene bilparvovec: response to ursodiol: responsive
Subject 115-9001, after resamirigene bilparvovec 3.0×10^14 vg/kg
  Elevated direct bilirubin (Grade 2) treated with ursodiol: time to resolution: 6 weeks

Source: patent US20240366785A1 (priority 2021, published 2024)
